Legend:
Assay type in all cases: cell-based
ER = ER re-expression after methylation inhibitor / HDAC inhibitor treatment (qRT-PCR, immunoblot); details: MCF-7/Twist cells; 1 μM AZA, 10 μM VPA, three days; qRT-PCR and immunoblotting
Method: Cells were treated with 1 μM AZA for three days and DNA processed for demethylation studies by methylation specific quantitative PCR (MS-qPCR). Total proteins were extracted and immunoblotted to analyze the effect of demethylation on ER expression. Cells were treated with HDAC inhibitor VPA at 10 μM concentration for three days and processed similarly.

MCF-7/Twist cells [1] = assay: Dye efflux assays
Method: (§1) Semiconfluent cells were washed once with HBSS and resuspended in growth medium at 1×10^6 cells/ml and 5 μg/ml Hoechst 33342 (Sigma-Aldrich, St. Louis, Mo.) and incubated for 45 minutes at 37° C. in a constant-temperature water bath. Subsequently, the cells were washed once in cold HBSS/2% BSA and resuspended in warm medium and incubated for 45 minutes at 37° C. for efflux. Cells were centrifuged and mounted on a slide before photomicroscopy.
(§2) For Rhodamine 123 (Sigma-Aldrich) staining, cells were trypsinized and washed twice in PBS/1% FCS. One million cells were resuspended in 100 μl of PBS/1% FCS and stained with 100 to 500 ng/ml Rhodamine 123 for 15 to 30 minutes at 37° C. Cells were washed twice at room temperature, resuspended, and incubated without Rhodamine 123 for 15 to 30 minutes at 37° C. to allow for efflux to occur. Rhodamine efflux was subsequently determined by flow cytometry on a FACScan II flow cytometer.

MCF-7 cells [2] = assay: Dye efflux assays
Method: as §1, §2

MCF-7/Twist cells [3] = assay: Cell cycle analysis by flow cytometry after anti-estrogen treatment; details: 1 μM 4-hydroxytamoxifen or 1 nM fulvestrant in PRF-MEM/5% CSS, three days
Method: (§3) Cell lines were obtained from ATCC (Manassas, Va.) and maintained as instructed. Construction of MCF-7/Twist and MCF 10A/Twist cell lines have been described earlier (19, 23). For transient expression, cells were transfected using either retroviral constructs (generated in-house) or lentiviral constructs (Open Biosystems, Huntsville, Ala.). For hormone studies, cells were grown for two days in phenol-red free minimal essential media (PRF-MEM) containing 5% charcoal stripped serum (CSS). For anti-estrogen treatment, PRFMEM/5% CSS media was supplemented with 1 μM 4-hydroxytamoxifen (tamoxifen) or 1 nM fulvestrant. Three days following treatment, the cells were fixed in 70% ethanol and cell cycle analysis performed on a FacScan I (BD Biosciences, San Jose, Calif.). Independent experiments were repeated four times. Data was analyzed using FlowJo (Tree Star Inc., Ashland, Oreg.) and ModFit LT 2.0 software (Verity House Software, Topsham, Me.).

MCF-7 cells [4] = assay: as above; details: 1 μM 4-hydroxytamoxifen or 1 nM fulvestrant in PRF-MEM/5% CSS, three days
Method: as §3

[5] = 5 μg/ml Hoechst 33342, 45 minutes efflux, microscopy

## Nc1ncn([C@H]2C[C@H](O)[C@@H](CO)O2)c(=O)n1 [AZA, 5-aza 2′-deoxycytidine]
ER
  ER expression (transcript and protein levels): significant increase

## CCOc1ccc(-c2nc3ccc(-c4nc5ccc(N6CCN(C)CC6)cc5[nH]4)cc3[nH]2)cc1 [Hoechst 33342]
MCF-7/Twist cells [1]; [5]
  relative fluorescence intensity per cell (dye retained after efflux): 57
MCF-7 cells [2]; [5]
  relative fluorescence intensity per cell (dye retained after efflux): 65

## CCCC(CCC)C(=O)O [VPA, valproic acid]
ER
  ER expression (transcript and protein levels): significant increase

## C[C@]12CC[C@@H]3c4ccc(O)cc4C[C@@H](CCCCCCCCC[S+]([O-])CCCC(F)(F)C(F)(F)F)[C@H]3[C@@H]1CC[C@@H]2O (stereo partly drawn) [fulvestrant]
MCF-7/Twist cells [3]
  G1 (percentage of cells in cell cycle phase): 67.7%
  G2/M (percentage of cells in cell cycle phase): 13.3%
  S (percentage of cells in cell cycle phase): 16.6%
MCF-7 cells [4]
  G1 (percentage of cells in cell cycle phase): 86%
  G2/M (percentage of cells in cell cycle phase): 5.8%
  S (percentage of cells in cell cycle phase): 3.9%

## Rhodamine 123
MCF-7/Twist cells [1]; Rhodamine 123, flow cytometry
  mean fluorescence intensity (dye retained after efflux): 96
MCF-7 cells [2]; Rhodamine 123, flow cytometry
  mean fluorescence intensity (dye retained after efflux): 205
